Measurements published in ChEMBL document CHEMBL5316324, “Discovery, Characterization, and Engineering of LvIC, an α4/4-Conotoxin That Selectively Blocks Rat α6/α3β4 Nicotinic Acetylcholine Receptors” (J Med Chem, 2023).
Activity calls are given as the source filed them. The calls are words filed in the database; no cut-off is given here. Peptide text beside a SMILES is read from it.

Columns and labels:
[1] = target: Nicotinic acetylcholine receptor alpha9/alpha10 (Rattus norvegicus) (UniProt P43144+Q9JLB5); experiment: Inhibition of rat alpha9/alpha10 nAChR expressed in Stage V-VI Xenopus laevis Oocytes assessed as inhibition of acetylcholine-induced current at 10 uM in presence of acetylcholine by electrophysiological recording relative to control; format: cell-based; details: Oocyte
[2] = target: Nicotinic acetylcholine receptor alpha6/alpha3/beta2/beta3 (Rattus norvegicus) (UniProt P04757+P12390+P12391+P43143); experiment: Inhibition of rat alpha6/alpha3beta2beta3 nAChR expressed in Stage V-VI Xenopus laevis Oocytes assessed as inhibition of acetylcholine-induced current at 10 uM in presence of acetylcholine by electrophysiological recording; format: cell-based; details: Oocyte
[3] = target: Neuronal acetylcholine receptor; alpha3/beta2 (Rattus norvegicus, UniProt P04757+P12390); experiment: Inhibition of rat alpha3/beta2 nAChR expressed in Stage V-VI Xenopus laevis Oocytes assessed as inhibition of acetylcholine-induced current in presence of acetylcholine by electrophysiological recording; format: cell-based, Oocyte
[4] = target: Neuronal acetylcholine receptor subunit alpha-7 (Rattus norvegicus, UniProt Q05941); experiment: Inhibition of rat alpha7 nAChR expressed in Stage V-VI Xenopus laevis Oocytes assessed as inhibition of acetylcholine-induced current in presence of acetylcholine by electrophysiological recording; format: cell-based, Oocyte
Rattus norvegicus [5] = organism: Rattus norvegicus; experiment: Selectivity index, ratio of IC50 for rat alpha6/alpha3beta4 D161A mutant nAChR expressed in Stage V-VI Xenopus laevis oocytes to IC50 for rat alpha6/alpha3beta4 nAChR expressed in Stage V-VI Xenopus laevis Oocytes by electrophysiological recording; format: cell-based
[6] = target: Neuronal acetylcholine receptor; alpha4/beta4 (Rattus norvegicus) (UniProt P09483+P12392); experiment: Inhibition of rat alpha4/beta4 nAChR expressed in Stage V-VI Xenopus laevis Oocytes assessed as inhibition of acetylcholine-induced current at 10 uM in presence of acetylcholine by electrophysiological recording relative to control; format: cell-based; details: Oocyte
[7] = target: Neuronal acetylcholine receptor; alpha3/beta2 (Rattus norvegicus) (UniProt P04757+P12390); experiment: Inhibition of rat alpha3/beta2 nAChR expressed in Stage V-VI Xenopus laevis Oocytes assessed as inhibition of acetylcholine-induced current at 10 uM in presence of acetylcholine by electrophysiological recording relative to control; format: cell-based; details: Oocyte
Oocyte [8] = experiment: (§1) Inhibition of rat alpha6/alpha3 D152A mutant beta4 nAChR expressed in Stage V-VI Xenopus laevis Oocytes assessed as inhibition of acetylcholine-induced current by measuring recovery time at 10 uM preincubated with compound for 5 mins followed by washout in presence of acetylcholine by electrophysiological recording; format: cell-based
[9] = target: Neuronal acetylcholine receptor; alpha2/beta2 (Rattus norvegicus) (UniProt P12389+P12390); experiment: Inhibition of rat alpha2/beta2 nAChR expressed in Stage V-VI Xenopus laevis Oocytes assessed as inhibition of acetylcholine-induced current at 10 uM in presence of acetylcholine by electrophysiological recording relative to control; format: cell-based; details: Oocyte
[10] = target: Neuronal acetylcholine receptor; alpha3/beta4 (Rattus norvegicus, UniProt P04757+P12392); experiment: Inhibition of rat alpha3/beta4 nAChR expressed in Stage V-VI Xenopus laevis Oocytes assessed as inhibition of acetylcholine-induced current in presence of acetylcholine by electrophysiological recording; format: cell-based, Oocyte
[11] = target: Neuronal acetylcholine receptor; alpha4/beta4 (Rattus norvegicus, UniProt P09483+P12392); experiment: Inhibition of rat alpha4/beta4 nAChR expressed in Stage V-VI Xenopus laevis Oocytes assessed as inhibition of acetylcholine-induced current in presence of acetylcholine by electrophysiological recording; format: cell-based, Oocyte
[12] = target: Neuronal acetylcholine receptor; alpha4/beta2 (Rattus norvegicus, UniProt P09483+P12390); experiment: Inhibition of rat alpha4/beta2 nAChR expressed in Stage V-VI Xenopus laevis Oocytes assessed as inhibition of acetylcholine-induced current in presence of acetylcholine by electrophysiological recording; format: cell-based, Oocyte
Oocyte [13] = experiment: Inhibition of rat alpha6/alpha3beta4 K57T mutant nAChR expressed in Stage V-VI Xenopus laevis Oocytes assessed as acetylcholine-induced current response at 1 uM in presence of 100 uM acetylcholine by electrophysiological recording relative to control; format: cell-based
[14] = Inhibition of rat alpha6/alpha3beta4 D161A mutant nAChR expressed in Stage V-VI Xenopus laevis Oocytes assessed as inhibition of acetylcholine-induced current in presence of acetylcholine by electrophysiological recording; format: cell-based; details: Oocyte
[15] = target: Nicotinic acetylcholine receptor alpha6/alpha3/beta4 (Rattus norvegicus) (UniProt P04757+P12392+P43143); experiment: Inhibition of rat alpha6/alpha3beta4 nAChR expressed in Stage V-VI Xenopus laevis Oocytes assessed as acetylcholine-induced current response at 1 uM in presence of 100 uM acetylcholine by electrophysiological recording relative to control; format: cell-based; design: scale not given: the % may be the effect or the level left; details: Oocyte
Rattus norvegicus [16] = organism: Rattus norvegicus; experiment: Selectivity index, ratio of IC50 for rat alpha6/alpha3beta4 K57T mutant nAChR expressed in Stage V-VI Xenopus laevis oocytes to IC50 for rat alpha6/alpha3beta4 nAChR expressed in Stage V-VI Xenopus laevis Oocytes by electrophysiological recording; format: cell-based
[17] = target: Neuronal acetylcholine receptor; alpha4/beta2 (Rattus norvegicus) (UniProt P09483+P12390); experiment: Inhibition of rat alpha4/beta2 nAChR expressed in Stage V-VI Xenopus laevis Oocytes assessed as inhibition of acetylcholine-induced current at 10 uM in presence of acetylcholine by electrophysiological recording relative to control; format: cell-based; details: Oocyte
Rattus norvegicus [18] = organism: Rattus norvegicus; experiment: Selectivity index, ratio of IC50 for rat alpha6/alpha3 E195A mutant beta4 nAChR expressed in Stage V-VI Xenopus laevis oocytes to IC50 for rat alpha6/alpha3beta4 nAChR expressed in Stage V-VI Xenopus laevis Oocytes by electrophysiological recording; format: cell-based
[19] = target: Nicotinic acetylcholine receptor alpha6/alpha3/beta4 (Rattus norvegicus, UniProt P04757+P12392+P43143); experiment: Inhibition of rat alpha6/alpha3beta4 nAChR expressed in Stage V-VI Xenopus laevis Oocytes assessed as inhibition of acetylcholine-induced current in presence of acetylcholine by electrophysiological recording; format: cell-based, Oocyte
[20] = target: Neuronal acetylcholine receptor; alpha2/beta4 (Rattus norvegicus) (UniProt P12389+P12392); experiment: Inhibition of rat alpha2/beta4 nAChR expressed in Stage V-VI Xenopus laevis Oocytes assessed as inhibition of acetylcholine-induced current at 10 uM in presence of acetylcholine by electrophysiological recording relative to control; format: cell-based; details: Oocyte
Oocyte [21] = experiment: as §1, with “E34M” for “D152A”, “recovery” for “recovery time”; format: cell-based; design: scale not given: the % may be the effect or the level left
Rattus norvegicus [22] = organism: Rattus norvegicus; experiment: Selectivity index, ratio of IC50 for rat alpha6/alpha3beta4 1166S mutant nAChR expressed in Stage V-VI Xenopus laevis oocytes to IC50 for rat alpha6/alpha3beta4 nAChR expressed in Stage V-VI Xenopus laevis Oocytes by electrophysiological recording; format: cell-based
Oocyte [23] = experiment: Inhibition of rat alpha6/alpha3beta4 K57T mutant nAChR expressed in Stage V-VI Xenopus laevis Oocytes assessed as acetylcholine-induced current response at 100 uM in presence of 100 uM acetylcholine by electrophysiological recording relative to control; format: cell-based
Oocyte [24] = experiment: Inhibition of rat alpha6/alpha3 E195A mutant beta4 nAChR expressed in Stage V-VI Xenopus laevis Oocytes assessed as acetylcholine-induced current response at 100 nM in presence of 100 uM acetylcholine by electrophysiological recording relative to control; format: cell-based

Neuronal acetylcholine receptor; alpha3/beta2, sequence (P04757 whole entry): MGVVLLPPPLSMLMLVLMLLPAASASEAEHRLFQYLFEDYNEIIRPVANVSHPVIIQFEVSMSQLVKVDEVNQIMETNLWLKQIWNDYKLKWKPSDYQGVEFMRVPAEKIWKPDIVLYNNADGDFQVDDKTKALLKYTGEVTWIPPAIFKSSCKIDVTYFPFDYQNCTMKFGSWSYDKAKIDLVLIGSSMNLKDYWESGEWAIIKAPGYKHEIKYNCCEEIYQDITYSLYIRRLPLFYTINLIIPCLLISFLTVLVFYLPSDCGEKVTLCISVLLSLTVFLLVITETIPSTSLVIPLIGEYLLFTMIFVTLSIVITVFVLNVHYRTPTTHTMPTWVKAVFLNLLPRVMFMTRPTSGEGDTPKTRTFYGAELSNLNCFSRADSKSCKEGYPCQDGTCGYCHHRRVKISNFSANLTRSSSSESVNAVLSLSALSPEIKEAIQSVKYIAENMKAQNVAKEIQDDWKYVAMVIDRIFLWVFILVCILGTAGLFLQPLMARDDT
Neuronal acetylcholine receptor; alpha3/beta2, sequence (P12390 whole entry): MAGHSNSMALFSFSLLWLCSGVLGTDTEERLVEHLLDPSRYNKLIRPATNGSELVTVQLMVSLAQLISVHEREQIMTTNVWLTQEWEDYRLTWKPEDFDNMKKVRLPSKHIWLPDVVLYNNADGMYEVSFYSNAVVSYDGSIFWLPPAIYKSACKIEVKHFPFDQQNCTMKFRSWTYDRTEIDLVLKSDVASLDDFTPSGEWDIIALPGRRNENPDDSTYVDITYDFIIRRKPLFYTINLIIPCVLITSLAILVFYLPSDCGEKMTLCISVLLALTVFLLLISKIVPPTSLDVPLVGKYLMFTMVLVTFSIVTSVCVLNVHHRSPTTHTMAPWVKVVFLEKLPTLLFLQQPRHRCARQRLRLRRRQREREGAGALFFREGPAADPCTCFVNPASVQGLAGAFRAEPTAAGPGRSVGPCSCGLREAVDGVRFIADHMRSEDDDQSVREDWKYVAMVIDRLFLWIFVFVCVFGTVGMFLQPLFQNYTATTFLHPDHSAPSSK
Neuronal acetylcholine receptor; alpha3/beta4, sequence (P04757 whole entry): as the sequence (P04757 whole entry) above
Neuronal acetylcholine receptor; alpha3/beta4, sequence (P12392 whole entry): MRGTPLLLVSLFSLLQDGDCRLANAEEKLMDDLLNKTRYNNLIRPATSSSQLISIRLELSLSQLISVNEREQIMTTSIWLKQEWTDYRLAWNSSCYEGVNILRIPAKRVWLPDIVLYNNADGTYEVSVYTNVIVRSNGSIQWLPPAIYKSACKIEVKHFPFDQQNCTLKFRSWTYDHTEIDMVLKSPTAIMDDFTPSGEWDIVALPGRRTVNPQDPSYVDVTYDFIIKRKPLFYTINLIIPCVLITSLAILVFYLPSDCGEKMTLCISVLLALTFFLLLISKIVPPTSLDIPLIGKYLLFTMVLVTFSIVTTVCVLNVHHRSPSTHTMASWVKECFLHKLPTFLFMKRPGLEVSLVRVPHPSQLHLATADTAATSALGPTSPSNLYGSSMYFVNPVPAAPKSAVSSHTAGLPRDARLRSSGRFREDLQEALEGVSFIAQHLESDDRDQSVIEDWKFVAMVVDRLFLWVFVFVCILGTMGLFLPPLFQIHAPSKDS
Nicotinic acetylcholine receptor alpha6/alpha3/beta4, sequence (P04757 whole entry): as the sequence (P04757 whole entry) above
Nicotinic acetylcholine receptor alpha6/alpha3/beta4, sequence (P12392 whole entry): as the sequence (P12392 whole entry) above
Nicotinic acetylcholine receptor alpha6/alpha3/beta4, sequence (P43143 whole entry): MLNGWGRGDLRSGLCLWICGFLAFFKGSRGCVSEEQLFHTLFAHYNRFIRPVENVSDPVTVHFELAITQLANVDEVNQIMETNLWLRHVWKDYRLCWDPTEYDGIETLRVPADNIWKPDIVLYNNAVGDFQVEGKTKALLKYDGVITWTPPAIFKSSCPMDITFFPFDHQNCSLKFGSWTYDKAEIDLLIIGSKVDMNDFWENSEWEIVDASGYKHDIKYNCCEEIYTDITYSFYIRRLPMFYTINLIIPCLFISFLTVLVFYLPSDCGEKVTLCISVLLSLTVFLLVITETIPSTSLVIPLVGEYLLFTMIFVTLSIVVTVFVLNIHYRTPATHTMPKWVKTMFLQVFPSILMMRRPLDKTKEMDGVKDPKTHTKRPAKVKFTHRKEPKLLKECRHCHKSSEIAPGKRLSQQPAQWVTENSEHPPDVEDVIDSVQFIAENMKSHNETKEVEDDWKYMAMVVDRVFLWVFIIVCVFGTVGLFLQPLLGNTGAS
Neuronal acetylcholine receptor subunit alpha-7, sequence (Q05941 whole entry): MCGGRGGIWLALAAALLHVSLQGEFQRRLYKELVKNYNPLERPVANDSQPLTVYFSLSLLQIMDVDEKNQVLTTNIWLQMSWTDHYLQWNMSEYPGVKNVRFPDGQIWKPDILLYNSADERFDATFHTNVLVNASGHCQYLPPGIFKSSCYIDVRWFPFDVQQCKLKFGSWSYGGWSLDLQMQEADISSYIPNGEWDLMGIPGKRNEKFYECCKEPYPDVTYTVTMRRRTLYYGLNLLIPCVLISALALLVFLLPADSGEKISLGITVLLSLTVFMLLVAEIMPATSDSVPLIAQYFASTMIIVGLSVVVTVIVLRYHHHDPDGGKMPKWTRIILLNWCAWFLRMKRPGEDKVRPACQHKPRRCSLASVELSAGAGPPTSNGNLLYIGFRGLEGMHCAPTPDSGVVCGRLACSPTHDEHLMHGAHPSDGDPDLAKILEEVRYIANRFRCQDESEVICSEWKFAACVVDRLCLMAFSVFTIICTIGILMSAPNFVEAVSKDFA
Neuronal acetylcholine receptor; alpha4/beta4, sequence (P09483 whole entry): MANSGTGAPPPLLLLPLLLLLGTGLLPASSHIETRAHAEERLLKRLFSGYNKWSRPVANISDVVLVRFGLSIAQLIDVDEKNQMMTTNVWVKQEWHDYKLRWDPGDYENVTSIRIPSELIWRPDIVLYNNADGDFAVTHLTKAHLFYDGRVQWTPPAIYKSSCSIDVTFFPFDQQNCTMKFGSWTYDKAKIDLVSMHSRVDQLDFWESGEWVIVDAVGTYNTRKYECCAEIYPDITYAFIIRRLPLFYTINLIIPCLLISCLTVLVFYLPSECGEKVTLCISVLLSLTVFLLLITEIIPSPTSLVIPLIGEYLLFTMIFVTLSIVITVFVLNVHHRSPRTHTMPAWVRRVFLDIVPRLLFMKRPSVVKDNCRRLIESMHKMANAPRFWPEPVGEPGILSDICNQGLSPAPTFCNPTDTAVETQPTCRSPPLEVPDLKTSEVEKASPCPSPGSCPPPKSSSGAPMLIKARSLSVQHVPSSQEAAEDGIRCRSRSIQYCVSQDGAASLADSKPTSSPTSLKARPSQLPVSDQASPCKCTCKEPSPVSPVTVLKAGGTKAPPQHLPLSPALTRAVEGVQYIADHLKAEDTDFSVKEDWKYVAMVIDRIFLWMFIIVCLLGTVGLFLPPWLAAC
Neuronal acetylcholine receptor; alpha4/beta4, sequence (P12392 whole entry): as the sequence (P12392 whole entry) above
Neuronal acetylcholine receptor; alpha4/beta2, sequence (P09483 whole entry): as the sequence (P09483 whole entry) above
Neuronal acetylcholine receptor; alpha4/beta2, sequence (P12390 whole entry): as the sequence (P12390 whole entry) above

With `CC(C)[C@H](NC(=O)[C@@H]1CCCN1C(=O)[C@H](CC(N)=O)NC(=O)[C@H](C)NC(=O)[C@H](CS)NC(=O)[C@H](CS)NC(=O)[C@@H](N)CCCNC(=N)N)C(=O)N[C@@H](CS)C(=O)N[C@@H](CC(N)=O)C(=O)NCC(=O)N[C@@H](CCCCN)C(=O)N[C@@H](Cc1cnc[nH]1)C(=O)N[C@@H](CS)C(N)=O` (H-RCCANPVCNGKHC-NH2) the inhibition [1] was < 50%, the inhibition [2] was “inactive” and the IC50 [3] was > 10 µM. For the same compound, the IC50 [4] was > 10 µM, the Ratio IC50 (Rattus norvegicus [5]) was 3.3 and the inhibition [6] was < 50%. For the same compound, the inhibition [7] was < 50%, the TIME (Oocyte [8]) was 0.0667 h and the inhibition [9] was < 50%. The IC50 [10] was > 10 µM, the IC50 [11] was > 10 µM and the IC50 [12] was > 10 µM. It also gave an inhibition (Oocyte [13]) of 92.7%, an IC50 [14] of 0.063 µM and an Activity [15] of 96%. The Ratio IC50 (Rattus norvegicus [16]) was 7, the inhibition [17] was < 50% and the Ratio IC50 (Rattus norvegicus [18]) was 50.5. For the same compound, the IC50 [19] was 0.019 µM, the inhibition [20] was < 50% and the Activity (Oocyte [21]) was 70%. The Ratio IC50 (Rattus norvegicus [22]) was 2.7, the inhibition (Oocyte [23]) was 43.2% and the inhibition (Oocyte [24]) was 9.11%.
